Experimental data as given in PMC7449246, “Natural HDAC‐1/8 inhibitor baicalein exerts therapeutic effect in CBF‐AML” (Clinical and Translational Medicine, 2020).

Tests used:
HDAC-1 = molecular target: T1, HDAC-1 (Homo sapiens, UniProt Q13547); experiment: fluorogenic deacetylase assay with purified HDAC; supported by CETSA in ME-1 cells (Tagg […] to […] °C); assay type: biochemical
T1 construct: gene HDAC1

HDAC-8 = molecular target: T2, HDAC-8 (Homo sapiens, UniProt Q9BY41); experiment: as above; assay type: biochemical
T2 construct: gene HDAC8
T2 sequence (Q9BY41 1-377): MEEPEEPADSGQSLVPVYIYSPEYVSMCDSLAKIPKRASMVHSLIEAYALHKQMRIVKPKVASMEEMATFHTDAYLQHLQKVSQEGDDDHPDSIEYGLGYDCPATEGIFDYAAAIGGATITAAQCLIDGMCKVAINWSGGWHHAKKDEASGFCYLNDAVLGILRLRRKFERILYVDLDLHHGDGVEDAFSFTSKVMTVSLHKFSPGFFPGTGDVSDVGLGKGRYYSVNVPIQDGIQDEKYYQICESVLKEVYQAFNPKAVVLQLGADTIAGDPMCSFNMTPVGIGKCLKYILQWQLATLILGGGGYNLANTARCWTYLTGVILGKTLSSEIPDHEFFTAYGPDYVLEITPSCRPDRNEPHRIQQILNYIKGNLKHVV

T1 sequence (Q13547 whole entry): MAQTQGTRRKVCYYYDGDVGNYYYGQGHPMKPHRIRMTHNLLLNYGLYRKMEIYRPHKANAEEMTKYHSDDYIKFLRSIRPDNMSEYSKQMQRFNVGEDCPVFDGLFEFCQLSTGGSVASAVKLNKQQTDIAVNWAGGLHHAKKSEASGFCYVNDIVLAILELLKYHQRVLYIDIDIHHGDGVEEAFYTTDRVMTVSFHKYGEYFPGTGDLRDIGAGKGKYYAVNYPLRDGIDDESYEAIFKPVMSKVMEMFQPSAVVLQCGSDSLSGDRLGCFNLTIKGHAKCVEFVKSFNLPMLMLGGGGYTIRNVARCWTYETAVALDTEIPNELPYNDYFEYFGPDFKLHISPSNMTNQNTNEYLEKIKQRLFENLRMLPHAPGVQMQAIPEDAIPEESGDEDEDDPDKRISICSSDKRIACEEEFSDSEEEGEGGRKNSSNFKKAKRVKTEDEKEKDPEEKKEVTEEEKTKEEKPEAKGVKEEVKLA

- IC50 (HDAC-1): 46.7 µM
- IC50 (HDAC-8): 3.95 µM
Compound: O=c1cc(-c2ccccc2)oc2cc(O)c(O)c(O)c12 [Baicalein]
